Measured values: PubChem BioAssay AID1919007 (Molecular Pharmacology Branch, DTP, NCI, 2023)
Where “and” joins values, the source holds several entries; their conditions need not be identical. Identical values can stand only once.

Tested on: A498 complex spheroids with HUVEC/MSC, growth
Test: Anticancer human tumor A498 cell line growth inhibition [AhR];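 also: seven day exposure starting three days after spheroid seeding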;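 as to viability, T/C: luminescence signal used as a surrogate for viable cells; luminescence viability scaled so 100% equals DMSO vehicle wells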
Conditions: for viability, T/C: stronger effect = lower value
Outline: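 Spheroids combined tumor cells with HUVEC endothelial cells and human MSCs as stroma. AhR antagonists were paired with standard or investigational drugs, each dosed in half-log steps down from near clinical Cmax, or from 10 microM where Cmax was unknown.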

[1] = curve of first compound, second compound 0.1 µM
[2] = curve of first compound, second compound 0.316 µM
[3] = curve of first compound, second compound 1 µM
[4] = curve of first compound, second compound 3.16 µM
[5] = curve of first compound, second compound 10 µM
[6] = second compound 0.1 µM, first compound 0.0316 µM
[7] = second compound 0.1 µM, first compound 0.1 µM
[8] = second compound 0.1 µM, first compound 0.316 µM
[9] = second compound 0.1 µM, first compound 1 µM
[10] = second compound 0.1 µM, first compound 3.16 µM
[11] = second compound 0.1 µM, first compound 10 µM
[12] = second compound 0.316 µM, first compound 0.0316 µM
[13] = second compound 0.316 µM, first compound 0.1 µM
[14] = second compound 0.316 µM, first compound 0.316 µM
[15] = second compound 0.316 µM, first compound 1 µM
[16] = second compound 0.316 µM, first compound 3.16 µM
[17] = second compound 0.316 µM, first compound 10 µM
[18] = second compound 1 µM, first compound 0.0316 µM
[19] = second compound 1 µM, first compound 0.1 µM
[20] = second compound 1 µM, first compound 0.316 µM
[21] = second compound 1 µM, first compound 1 µM
[22] = second compound 1 µM, first compound 3.16 µM
[23] = second compound 1 µM, first compound 10 µM
[24] = second compound 3.16 µM, first compound 0.0316 µM
[25] = second compound 3.16 µM, first compound 0.1 µM
[26] = second compound 3.16 µM, first compound 0.316 µM
[27] = second compound 3.16 µM, first compound 1 µM
[28] = second compound 3.16 µM, first compound 3.16 µM
[29] = second compound 3.16 µM, first compound 10 µM
[30] = second compound 10 µM, first compound 0.0316 µM
[31] = second compound 10 µM, first compound 0.1 µM
[32] = second compound 10 µM, first compound 0.316 µM
[33] = second compound 10 µM, first compound 1 µM
[34] = second compound 10 µM, first compound 3.16 µM
[35] = second compound 10 µM, first compound 10 µM

Structure (SMILES) | IC50 [1] [nM] | IC50 [2] [nM] | IC50 [3] [nM] | IC50 [4] [nM] | IC50 [5] [nM] | viability, T/C [6] [%] | viability, T/C [7] [%] | viability, T/C [8] [%] | viability, T/C [9] [%] | viability, T/C [10] [%] | viability, T/C [11] [%] | viability, T/C [12] [%] | viability, T/C [13] [%] | viability, T/C [14] [%] | viability, T/C [15] [%] | viability, T/C [16] [%] | viability, T/C [17] [%] | viability, T/C [18] [%] | viability, T/C [19] [%] | viability, T/C [20] [%] | further results
COc1cc(Nc2ncc3c(n2)-c2ccc(Cl)cc2C(c2c(F)cccc2OC)=NC3)ccc1C(=O)O + CC(CO)NC(=O)c1cc(-c2ccc(Cl)cc2)nn(-c2cnn(C)c2)c1=O | 1490 | 1360 | 892 | 1060 | 455 | 62.6 | 69.4 | 63.5 | 50.2 | 45.3 | 33.2 | 70 | 67.9 | 64.5 | 50.7 | 43.3 | 32.3 | 60.1 | 67.5 | 61.1 | viability, T/C [21]: 47%; viability, T/C [22]: 41.5%; viability, T/C [23]: 33.5%; viability, T/C [24]: 55.1%; viability, T/C [25]: 59.9%; viability, T/C [26]: 59.1%; viability, T/C [27]: 47.2%; viability, T/C [28]: 42.2%; viability, T/C [29]: 30.8%; viability, T/C [30]: 49.6%; viability, T/C [31]: 55%; viability, T/C [32]: 53.3%; viability, T/C [33]: 44.8%; viability, T/C [34]: 37.4%; viability, T/C [35]: 34.9%
COc1cccc2c1C(=O)c1c(O)c3c(c(O)c1C2=O)CC(O)(C(=O)CO)CC3OC1CC(N)C(O)C(C)O1 (configuration not stated) + Cc1ccccc1N=Nc1ccc(NC(=O)c2ccnn2C)c(C)c1 | 290 | 397 | 369 | 397 | 400 | 61.7 | 52.4 | 49.6 | 23.8 | 1.17 | 0.89 | 65.6 | 61.6 | 55.7 | 25.5 | 1.09 | 1.35 | 58.6 | 60.4 | 52.9 | viability, T/C [21]: 25.7%; viability, T/C [22]: 1.54%; viability, T/C [23]: 0.92%; viability, T/C [24]: 59.9%; viability, T/C [25]: 62.6%; viability, T/C [26]: 52.9%; viability, T/C [27]: 30.6%; viability, T/C [28]: 2.05%; viability, T/C [29]: 0.61%; viability, T/C [30]: 61.7%; viability, T/C [31]: 57.5%; viability, T/C [32]: 55.4%; viability, T/C [33]: 27%; viability, T/C [34]: 1.19%; viability, T/C [35]: 1.56%
CC(C)CC(NC(=O)C(Cc1ccccc1)NC(=O)c1cnccn1)B(O)O (configuration not stated) | – | – | – | – | – | – | – | – | – | – | – | – | – | – | – | – | – | – | – | – | viability, T/C (compound 0.000949 µM): 103% and 105% and 98.6%; viability, T/C (compound 0.003 µM): 106% and 99.9% and 58.5%; viability, T/C (compound 0.00949 µM): 6.74% and 11.6% and 2.52%; viability, T/C (compound 0.03 µM): 1.23% and 2.41% and 0.68%; viability, T/C (compound 0.0949 µM): 0.52% and 1.47% and 1.32%; viability, T/C (compound 0.3 µM): 0.53% and 0.64% and 0.32%; IC50 (curve of compound): 5.7 nM and 5.75 nM and 3.57 nM
